Assay results taken from PubChem BioAssay (NCI).
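1) Cells in 96-well plates. 2) Compound, 48 h, 5 concentrations. 3) Linear interpolation between surrounding doses. 4) Unreached endpoint = highest concentration. GI50 = concentration required for 50% inhibition of growth. TGI denotes the concentration required for complete inhibition of growth.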

Tests used:
Experiment in all cases: inhibition of tumour cell growth, NCI panel, 48 h
[1] = test system: DU-145 prostate
[2] = test system: OVCAR-8 ovarian
[3] = test system: SF-295 CNS
[4] = test system: HCT-116 colon
[5] = test system: NCI-H460 lung
[6] = test system: EKVX NSCLC
[7] = test system: SN12C renal
[8] = test system: U251 CNS
[9] = test system: HCT-15 colon
[10] = test system: SK-MEL-5 melanoma
[11] = test system: SF-539 CNS
[12] = test system: PC-3 prostate
[13] = test system: IGROV1 ovarian
[14] = test system: SK-OV-3 ovarian
[15] = test system: SK-MEL-2 melanoma
[16] = test system: HL-60(TB) leukemia

Row | Compound | TGI [1] [µM] | TGI [2] [µM] | TGI [3] [µM] | TGI [4] [µM] | TGI [5] [µM] | TGI [6] [µM] | TGI [7] [µM] | TGI [8] [µM] | TGI [9] [µM] | TGI [10] [µM] | TGI [11] [µM] | TGI [12] [µM] | TGI [13] [µM] | TGI [14] [µM] | TGI [15] [µM] | TGI [16] [µM] | GI50 [5] [µM] | GI50 [7] [µM]
1 | c1csc(-c2cc(-c3ccsc3)c(-c3cccs3)s2)c1 | > 100 | > 100 | > 100 | > 100 | > 100 | > 100 | > 100 | > 100 | > 100 | > 100 | > 100 | > 100 |  |  |  |  |  | 
2 | CN1C(=O)c2cccc3c([N+](=O)[O-])ccc(c23)C1=O |  | 18.9 | 28.1 | 18.9 | 11.7 | 29.4 | 24.9 | 13.8 | 11 | 32.6 | 26.2 |  | 9.43 | 27.9 | 24.8 |  |  | 
3 | COc1cc([C@@H]2c3cc4c(cc3[C@@H](NC(=O)c3ccc(C(C)=O)cc3)C3COC(=O)[C@@H]32)OCO4)cc(OC)c1O (stereo partly specified) |  | 13.7 | > 100 | 5.03 | 1.53 | 17.6 | 2.03 | 1.65 | 17.3 | 10.3 | 1.89 |  | 5.71 | 9.46 | 8.03 | 0.912 |  | 
4 | CNC(=O)OC(C)CN1c2ccccc2Sc2ccccc21 (stereo unspecified) | > 100 | > 100 | > 100 | > 100 | > 100 | > 100 | > 100 | > 100 | > 100 | > 100 | > 100 | > 100 | > 100 | > 100 |  | > 100 |  | 
5 | CC1(C)C2CCC1(C)C(NC(=O)CCN1CCOCC1)C2 (stereo unspecified) | > 100 | > 100 | > 100 | > 100 | > 100 | > 100 | > 100 | > 100 |  | > 100 | > 100 | > 100 | > 100 | > 100 |  | > 100 |  | 
6 | COc1cccc2c1[C@H](OC)[C@]13O[C@@]1(C2=O)[C@H](O)[C@H](C)[C@@](O)(C(=O)[C@@H]1O[C@H]1C)[C@@H]3O |  | 0.61 | 0.558 |  | 0.617 | 0.616 | 0.819 | 3.1 | 2.07 | 0.386 | 0.975 |  | 0.576 | 1.47 | 0.384 |  | 0.211 | 0.0489
7 | CCN(CC)CCNC(=O)c1ccccc1Nc1c(Cl)cccc1Cl |  | 31.5 |  | 25.7 | 16 | 26.6 | 27.1 | 20.7 | 26 | 24.2 | 32.7 |  | 36.1 | 30.4 |  | 25.5 |  | 
8 | CCCN(CCC)C(=O)Cc1c2n(c3ccccc13)CCCc1ccccc1-2 |  | 29.9 | 22.4 | 26.3 | 29.3 | 28.5 | 29.2 | 29.4 | 23.8 | 27.4 | 28.6 |  |  | 29 | 25.8 | 37.1 |  | 
9 | C1CSCCSS[C@@H]2CCCCC2SC1 (stereo partly specified) | > 100 | > 100 | > 100 | > 100 | > 100 | > 100 | > 100 | > 100 | > 100 | > 100 | > 100 | > 100 | > 100 | > 100 |  | > 100 |  | 
10 | O=C1c2ccccc2N2OC3C4CCC(C4)C3C12c1ccccc1 (stereo unspecified) |  | > 100 | > 100 | > 100 |  | > 100 | > 100 | > 100 | > 100 | > 100 | > 100 |  | > 100 | > 100 |  | > 100 |  | 
11 | CCCCCCCCCCCCCC/C(=C/OCC[N+](C)(C)C)OC(C)=O (tested in a mixture with another compound) | 17.1 | 4.15 | 5.34 | 11.2 |  | 10.7 | 12.5 | 2.71 | 19.5 | 4.92 | 5.88 | 5.27 | 3.96 | 17.1 |  | 3.27 |  | 
12 | O=C(Cc1ccccc1)NN1C(=O)C(Cl)C1c1cc(Br)cc(Br)c1O (stereo unspecified) |  | > 100 | 98.7 | 16 | 22.4 | 68.1 | > 100 | 31.4 | > 100 | 29.6 |  |  | 58.9 | 62.6 | 36.6 | 10.1 |  | 
13 | CSc1ccc2c(cc1=O)C(NC(=O)c1cc(O)c(OC(=O)O)c(O)c1)CCc1cc(O)c(O)c(O)c1-2 (stereo unspecified) |  | > 90 | 36.5 | 29.1 | 49.1 | 38.8 | 26.7 | 32.9 | 34.3 | 29.1 | > 90 |  | 37.7 | > 90 | > 90 | 70.3 |  | 
14 | COc1ccccc1OCc1nnc(SCC(=O)O)n1-c1ccccc1 |  | > 100 | > 100 | > 100 | > 100 | > 100 | > 100 | > 100 | > 100 | > 100 | > 100 |  | > 100 | > 100 | > 100 | > 100 |  | 
15 | O=C(CCNC(=O)OCc1ccccc1)OCCCNC(=O)OCc1ccccc1 | > 100 | > 100 | > 100 | > 100 | > 100 |  | > 100 | > 100 | > 100 | > 100 | > 100 | > 100 | > 100 | > 100 |  | > 100 |  | 
16 | Cc1nnc2nc(-c3ccc(Cl)cc3Cl)cc(-c3ccc(Cl)cc3)n12 | > 100 | > 100 | > 100 | > 100 | > 100 |  | > 100 | > 100 | > 100 | > 100 | > 100 | > 100 |  | > 100 |  | > 100 |  | 
17 | CCOC(=O)NC(=O)c1cn(-c2ccc(CCOC(=O)CCCCCCCCC(=O)OCCc3ccc(-n4cc(C(=O)NC(=O)OCC)c(=O)[nH]c4=O)cc3)cc2)c(=O)[nH]c1=O |  | > 100 | > 100 | > 100 | > 100 | > 100 | > 100 | > 100 | > 100 | > 100 | > 100 |  | > 100 | > 100 | > 100 | > 100 |  | 
18 | CCOP(=O)(C/C(=N/NC(C)(C)C)C(=O)Nc1nc2ccc(C)cc2s1)OCC |  | > 100 | > 100 | > 100 | > 100 | > 100 | > 100 | > 100 | > 100 | > 100 | > 100 |  | > 100 | > 100 | > 100 | > 100 |  | 
19 | CN(C)CC1CCC(CN(C)C)C1=NO (stereo unspecified) |  | > 100 | > 10 | > 100 | > 10 | > 100 | > 100 |  | > 100 | > 100 | > 100 |  | > 100 |  |  |  |  | 
20 | COc1cc(C(CN)N(C)C)cc(OC)c1OC (stereo unspecified) | > 100 | > 100 | > 100 | > 100 | > 100 | > 100 | > 100 | > 100 | > 100 | > 100 | > 100 | > 100 | > 100 | > 100 |  | > 100 |  | 
21 | CCC(=O)NCC1(c2c[nH]c3ccccc23)SCCS1 |  | > 100 | > 100 | > 100 | > 100 | > 100 | > 100 | > 100 | > 100 | > 100 | > 100 |  | > 100 | > 100 | > 100 | > 100 |  | 
22 | COC(=O)C(=O)C(C(=O)C(=O)Nc1ccc([N+](=O)[O-])cc1C#N)c1nc2ccc([N+](=O)[O-])cc2[nH]c1=O (stereo unspecified) |  | > 100 | > 100 | > 100 | > 100 | > 100 | > 100 | > 100 | > 100 |  | > 100 |  |  | > 100 | > 100 | > 100 |  | 
23 | COc1cccc(NC(=O)c2c(SC)n[nH]c2N)c1 |  | > 100 | > 100 | > 100 | > 100 | > 100 | > 100 | > 100 | > 100 | > 100 | > 100 | > 100 | > 100 | > 100 | > 100 | > 100 |  | 
24 | CC(=O)C1CC2(c3ccccc3)C(=O)c3ccccc3N2O1 (stereo unspecified) |  | > 100 | > 100 | > 100 |  | > 100 | > 100 | > 100 | > 100 | > 100 | > 100 |  | > 100 | > 100 |  | > 100 |  | 
25 | CC1(Br)C(=O)NC(=O)N([C@H]2C[C@H](O)[C@@H](CO)O2)C1N=[N+]=[N-] (stereo partly specified) |  | > 100 | > 100 | > 100 | > 100 | > 100 | > 100 | > 100 | > 100 | > 100 | > 100 |  | > 100 | > 100 | > 100 | > 100 |  | 
